# Results from US20240409585A1, “MACROCYCLIC IMMUNOMODULATORS” (priority 2021, published 2024).
# Numbered stars: 1 amine (or outer) side, 2 acyl side, 3 side chain; on linkers, the order of the positions; unused ones are H or OH. Bridge positions count the residues as written; N and C are the ends. Square brackets hold non-standard residues; d marks the D form. Peptide text beside a SMILES is read from it. * marks the point of attachment. X39 = COc1cccc(-c2ccc(C[C@H](N[*:1])C(=O)[*:2])cc2)c1; X19 = Cc1cccc(-c2ccc(C[C@H](N[*:1])C(=O)[*:2])cc2)c1; Trp(7-Me) = Cc1cccc2c(C[C@H](N)C(=O)O)c[nH]c12; Bip = N[C@@H](Cc1ccc(-c2ccccc2)cc1)C(=O)O; Phe(2-Me) = Cc1ccccc1C[C@H](N)C(=O)O; Carboxymethyl = O=C(O)C*; NMeA = CN[C@@H](C)C(=O)O; Nle = CCCC[C@H](N)C(=O)O; Dab = NCC[C@H](N)C(=O)O
# Biological target: T1, PE-labeled human PD-L1-Ig binding to Jurkat cell line over-expressing human PD-1 (Jurkat-PD-1) (Homo sapiens, UniProt Q15116)
# T1 construct: expressed in transfected cells; host or cells: Jurkat
# T1 sequence (Q15116 25-288): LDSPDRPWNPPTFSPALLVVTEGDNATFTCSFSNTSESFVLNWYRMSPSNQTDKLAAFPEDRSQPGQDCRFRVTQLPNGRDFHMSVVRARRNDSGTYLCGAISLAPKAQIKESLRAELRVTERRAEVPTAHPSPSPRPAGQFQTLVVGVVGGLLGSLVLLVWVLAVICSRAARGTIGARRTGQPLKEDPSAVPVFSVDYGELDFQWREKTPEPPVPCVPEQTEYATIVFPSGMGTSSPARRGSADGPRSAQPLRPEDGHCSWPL
# Test: Jurkat-PD-1 Cell Binding High-Content Screening Assay (CBA): Method 1
# Conditions: Jurkat-hPD-1 cells, PE-labeled PD-L1-Ig 20 nM final; read-out: Jurkat HPDL1 PD1 IC50 (uM) (Method 1)
row,IC50 [µM],SMILES
1,0.12,CC(C)C[C@@H]1NC(=O)[C@H](Cc2c[nH]c3ccccc23)NC(=O)[C@H](CC(=O)O)NC(=O)[C@H](Cc2ccc(O)cc2)NC(=O)[C@H](Cc2ccccc2)NC(=O)CSC[C@@H](C(=O)N[C@@H](C)C(N)=O)NC(=O)[C@H]([C@@H](C)O)NC(=O)[C@H](CCCNC(=N)N)NC(=O)[C@H](CC(C)C)NC(=O)[C@H](CC(N)=O)NC(=O)[C@@H](C)NC(=O)[C@H](C)N(C)C(=O)[C@H](C(C)C)NC(=O)[C@H](Cc2ccc(-c3ccccc3)cc2)NC1=O [Compound 1789] ({CH2CO}-FYDWL[Bip]V[NMeA][dA]NLRTCA-NH2; thioether N-14)
2,0.13,CCCC[C@@H]1NC(=O)[C@H](CC(N)=O)NC(=O)[C@@H](C)NC(=O)[C@H](C)N(C)C(=O)[C@H](C(C)C)NC(=O)[C@H](Cc2ccc(-c3ccccc3)cc2)NC(=O)[C@H](CC(C)C)NC(=O)[C@H](Cc2c[nH]c3ccccc23)NC(=O)[C@H](CC(=O)O)NC(=O)[C@H](Cc2ccc(O)cc2)NC(=O)[C@H](Cc2ccccc2)NC(=O)CSC[C@@H](C(=O)N[C@@H](C)C(N)=O)NC(=O)[C@H]([C@@H](C)O)NC(=O)[C@H](CCCCN)NC1=O [Compound 1790] ({CH2CO}-FYDWL[Bip]V[NMeA][dA]N[Nle]KTCA-NH2; thioether N-14)
3,0.13,CC(C)C[C@@H]1NC(=O)[C@H](Cc2c[nH]c3ccccc23)NC(=O)[C@H](CC(N)=O)NC(=O)[C@H](Cc2ccc(O)cc2)NC(=O)[C@H](Cc2ccccc2)NC(=O)CSC[C@@H](C(=O)N[C@@H](C)C(N)=O)NC(=O)[C@H](CO)NC(=O)[C@H](C(C)C)NC(=O)[C@H](CC(C)C)NC(=O)[C@H](CC(N)=O)NC(=O)[C@@H](C)NC(=O)[C@H](C)N(C)C(=O)[C@H](C(C)C)NC(=O)[C@H](Cc2ccc(-c3ccccc3)cc2)NC1=O [Compound 1791] ({CH2CO}-FYNWL[Bip]V[NMeA][dA]NLVSCA-NH2; thioether N-14)
4,0.15,CC(C)C[C@@H]1NC(=O)[C@H](Cc2c[nH]c3ccccc23)NC(=O)[C@H](CC(=O)O)NC(=O)[C@H](Cc2ccc(O)cc2)NC(=O)[C@H](Cc2ccccc2)NC(=O)CSC[C@@H](C(=O)N[C@@H](C)C(N)=O)NC(=O)[C@H](CO)NC(=O)[C@H](C(C)C)NC(=O)[C@H](CC(C)C)NC(=O)[C@H](CC(N)=O)NC(=O)[C@@H](CCCCN)NC(=O)[C@H](C)N(C)C(=O)[C@H](C(C)C)NC(=O)[C@H](Cc2ccc(-c3ccccc3)cc2)NC1=O [Compound 1793] ({CH2CO}-FYDWL[Bip]V[NMeA][dK]NLVSCA-NH2; thioether N-14)

# The next lines start with the molecule.
row,SMILES,IC50 [µM]
1,Cc1cccc(-c2ccc(C[C@@H]3NC(=O)[C@H](CC(C)C)NC(=O)[C@H](Cc4c[nH]c5ccccc45)NC(=O)[C@H](CC(=O)O)NC(=O)[C@H](Cc4ccc(O)cc4)NC(=O)[C@H](Cc4ccccc4)NC(=O)CSC[C@@H](C(=O)N[C@@H](C)C(N)=O)NC(=O)[C@H](CO)NC(=O)[C@H](C(C)C)NC(=O)[C@H](CC(C)C)NC(=O)[C@H](CC(N)=O)NC(=O)[C@@H](C)NC(=O)[C@H](C)N(C)C(=O)[C@H](C(C)C)NC3=O)cc2)c1 [Compound 1788] ({CH2CO}-FYDWL[X19]V[NMeA][dA]NLVSCA-NH2; thioether N-14),0.11
2,CC(C)C[C@@H]1NC(=O)[C@H](Cc2c[nH]c3ccccc23)NC(=O)[C@H](CC(=O)O)NC(=O)[C@H](Cc2ccc(O)cc2)NC(=O)[C@H](Cc2ccccc2)NC(=O)CSC[C@@H](C(=O)N[C@@H](C)C(N)=O)NC(=O)[C@H](CO)NC(=O)[C@H](C(C)C)NC(=O)[C@H](CC(C)C)NC(=O)[C@H](CCC(=O)O)NC(=O)[C@@H](C)NC(=O)[C@H](C)N(C)C(=O)[C@H](CCC(=O)O)NC(=O)[C@H](Cc2ccc(-c3ccccc3)cc2)NC1=O [Compound 1792] ({CH2CO}-FYDWL[Bip]E[NMeA][dA]ELVSCA-NH2; thioether N-14),0.13
3,Cc1ccccc1C[C@@H]1NC(=O)[C@H](Cc2ccccc2)NC(=O)CSC[C@@H](C(=O)N[C@@H](C)C(N)=O)NC(=O)[C@H](CO)NC(=O)[C@H](C(C)C)NC(=O)[C@H](CC(C)C)NC(=O)[C@H](CC(N)=O)NC(=O)[C@@H](C)NC(=O)[C@H](C)N(C)C(=O)[C@H](C(C)C)NC(=O)[C@H](Cc2ccc(-c3ccccc3)cc2)NC(=O)[C@H](CC(C)C)NC(=O)[C@H](Cc2c[nH]c3ccccc23)NC(=O)[C@H](CC(=O)O)NC1=O [Compound 1794] ({CH2CO}-F[Phe(2-Me)]DWL[Bip]V[NMeA][dA]NLVSCA-NH2; thioether N-14),0.15
4,CC(C)C[C@@H]1NC(=O)[C@H](Cc2c[nH]c3ccccc23)NC(=O)[C@H](CC(=O)O)NC(=O)[C@H](Cc2ccc(O)cc2)NC(=O)[C@H](Cc2ccccc2)NC(=O)CSC[C@@H](C(=O)NCC(N)=O)NC(=O)[C@H](CO)NC(=O)[C@H](C(C)C)NC(=O)[C@H](CC(C)C)NC(=O)[C@H](CC(N)=O)NC(=O)[C@H](CCN)NC(=O)[C@H](C)N(C)C(=O)[C@H](C(C)C)NC(=O)[C@H](Cc2ccc(-c3ccccc3)cc2)NC1=O [Compound 1795] ({CH2CO}-FYDWL[Bip]V[NMeA][Dab]NLVSCG-NH2; thioether N-14),0.16
5,Cc1cccc2c(C[C@@H]3NC(=O)[C@H](CC(=O)O)NC(=O)[C@H](Cc4ccc(O)cc4)NC(=O)[C@H](Cc4ccccc4)NC(=O)CSC[C@@H](C(=O)N[C@@H](C)C(N)=O)NC(=O)[C@H](CO)NC(=O)[C@H](C(C)C)NC(=O)[C@H](CC(C)C)NC(=O)[C@H](CC(N)=O)NC(=O)[C@@H](C)NC(=O)[C@H](C)N(C)C(=O)[C@H](C(C)C)NC(=O)[C@H](Cc4ccc(-c5ccccc5)cc4)NC(=O)[C@H](CC(C)C)NC3=O)c[nH]c12 [Compound 1796] ({CH2CO}-FYD[Trp(7-Me)]L[Bip]V[NMeA][dA]NLVSCA-NH2; thioether N-14),0.16
6,CC(C)C[C@@H]1NC(=O)[C@H](Cc2c[nH]c3ccccc23)NC(=O)[C@H](CC(=O)O)NC(=O)[C@H](Cc2ccc(O)cc2)NC(=O)[C@H](Cc2ccccc2)NC(=O)CSC[C@@H](C(=O)NCC(N)=O)NC(=O)[C@H](CO)NC(=O)[C@H](C(C)C)NC(=O)[C@H](CC(C)C)NC(=O)[C@H](CC(N)=O)NC(=O)[C@@H](Cc2cnc[nH]2)NC(=O)[C@H](C)N(C)C(=O)[C@H](C(C)C)NC(=O)[C@H](Cc2ccc(-c3ccccc3)cc2)NC1=O [Compound 1797] ({CH2CO}-FYDWL[Bip]V[NMeA][dH]NLVSCG-NH2; thioether N-14),0.16
7,COc1cccc(-c2ccc(C[C@@H]3NC(=O)[C@H](CC(C)C)NC(=O)[C@H](Cc4c[nH]c5ccccc45)NC(=O)[C@H](CC(=O)O)NC(=O)[C@H](Cc4ccc(O)cc4)NC(=O)[C@H](Cc4ccccc4)NC(=O)CSC[C@@H](C(=O)N[C@@H](C)C(N)=O)NC(=O)[C@H](CO)NC(=O)[C@H](C(C)C)NC(=O)[C@H](CC(C)C)NC(=O)[C@H](CC(N)=O)NC(=O)[C@@H](C)NC(=O)[C@H](C)N(C)C(=O)[C@H](C(C)C)NC3=O)cc2)c1 [Compound 1798] ({CH2CO}-FYDWL[X39]V[NMeA][dA]NLVSCA-NH2; thioether N-14),0.17
8,CC(C)C[C@@H]1NC(=O)[C@H](Cc2c[nH]c3ccccc23)NC(=O)[C@H](CC(=O)O)NC(=O)[C@H](Cc2ccc(OCC(=O)O)cc2)NC(=O)[C@H](Cc2cnc[nH]2)NC(=O)CSC[C@@H](C(=O)N[C@@H](C)C(N)=O)NC(=O)[C@H](CO)NC(=O)[C@H](C(C)C)NC(=O)[C@H](CC(C)C)NC(=O)[C@H](CC(N)=O)NC(=O)[C@@H](C)NC(=O)[C@H](C)N(C)C(=O)[C@H](C(C)C)NC(=O)[C@H](Cc2ccc(-c3ccccc3)cc2)NC1=O [Compound 1799] ({CH2CO}-HY(Carboxymethyl)DWL[Bip]V[NMeA][dA]NLVSCA-NH2; thioether N-14),0.18
